Test results: ChEMBL document CHEMBL1148496, “Novel alkylpolyaminoguanidines and alkylpolyaminobiguanides with potent antitrypanosomal activity” (Bioorg Med Chem Lett, 2006)

How the values were obtained:
Trypanothione reductase = Trypanothione reductase (Trypanosoma cruzi, UniProt P28593); test: Inhibition of Trypanosoma cruzi TR
[1] = target: T1, Glutathione reductase, mitochondrial (Homo sapiens, UniProt P00390); test: Inhibition of human glutathione reductase
T1 sequence (P00390 whole entry): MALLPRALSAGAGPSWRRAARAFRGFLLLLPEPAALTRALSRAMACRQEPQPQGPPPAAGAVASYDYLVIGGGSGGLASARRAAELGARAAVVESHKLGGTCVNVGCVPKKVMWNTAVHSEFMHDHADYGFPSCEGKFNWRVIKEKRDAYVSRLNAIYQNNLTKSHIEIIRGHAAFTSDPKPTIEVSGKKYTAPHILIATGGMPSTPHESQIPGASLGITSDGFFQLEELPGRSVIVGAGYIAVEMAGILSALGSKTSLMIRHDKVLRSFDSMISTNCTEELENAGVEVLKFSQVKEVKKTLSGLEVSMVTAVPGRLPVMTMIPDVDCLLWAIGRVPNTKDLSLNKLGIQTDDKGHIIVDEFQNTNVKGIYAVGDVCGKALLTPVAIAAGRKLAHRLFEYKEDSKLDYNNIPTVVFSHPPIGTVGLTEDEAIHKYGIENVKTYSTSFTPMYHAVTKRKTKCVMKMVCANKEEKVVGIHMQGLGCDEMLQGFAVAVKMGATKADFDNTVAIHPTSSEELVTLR

[2] = tested on: Trypanosoma brucei brucei; test: Antitrypanosomal activity against Trypanosoma brucei brucei; format: functional, organism-based

Sequence of Trypanothione reductase (P28593 whole entry): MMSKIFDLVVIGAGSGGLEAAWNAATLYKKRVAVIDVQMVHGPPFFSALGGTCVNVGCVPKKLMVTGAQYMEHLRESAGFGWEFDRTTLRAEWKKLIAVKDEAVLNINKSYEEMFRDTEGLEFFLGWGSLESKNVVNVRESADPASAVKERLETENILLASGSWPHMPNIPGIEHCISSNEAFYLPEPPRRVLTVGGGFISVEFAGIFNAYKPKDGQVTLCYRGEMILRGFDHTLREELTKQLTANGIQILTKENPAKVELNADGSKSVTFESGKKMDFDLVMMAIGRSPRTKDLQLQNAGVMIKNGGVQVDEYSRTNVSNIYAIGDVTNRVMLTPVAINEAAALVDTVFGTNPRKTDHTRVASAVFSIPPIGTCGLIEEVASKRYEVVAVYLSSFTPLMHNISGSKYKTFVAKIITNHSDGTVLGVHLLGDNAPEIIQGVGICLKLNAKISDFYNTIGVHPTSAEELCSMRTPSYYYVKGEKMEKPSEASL

| SMILES | IC50 (Trypanothione reductase) | IC50 [1] | IC50 [2] |
| --- | --- | --- | --- |
| NC(=NCCCNCCCCCCCNCCCN=C(N)NC1CCCCCC1)NC1CCCCCC1 | 17.7 µM | > 100 µM | 0.18 µM |
| NC(=NCCCNCCCNCCCN=C(N)NCC(c1ccccc1)c1ccccc1)NCC(c1ccccc1)c1ccccc1 | 3.6 µM | > 100 µM | 2.05 µM |
| NC(=NCCCNCCCCCCCNCCCN=C(N)NCC(c1ccccc1)c1ccccc1)NCC(c1ccccc1)c1ccccc1 | 4.72 µM | > 100 µM | 0.5 µM |
| NC(=NCCCNCCCCCCCNCCCN=C(N)NCCC(c1ccccc1)c1ccccc1)NCCC(c1ccccc1)c1ccccc1 | 2.24 µM | > 100 µM | 0.61 µM |
| N=C(NCCCNCCCCNCCCNC(=N)NCCC(c1ccccc1)c1ccccc1)NCCC(c1ccccc1)c1ccccc1 | 2.97 µM | > 100 µM | 2.4 µM |
| NC(=NCCCNCCCCCCCNCCCN=C(N)NCc1ccccc1)NCc1ccccc1 | 69.5 µM | > 100 µM | 0.09 µM |

More lines, now with the values ahead:

| IC50 (Trypanothione reductase) | IC50 [1] | IC50 [2] | SMILES |
| --- | --- | --- | --- |
| 3.68 µM | > 100 µM | 1.76 µM | N=C(NCCCNCCCNCCCNC(=N)NC(=N)NCCC(c1ccccc1)c1ccccc1)NC(=N)NCCC(c1ccccc1)c1ccccc1 |
| 1.66 µM | > 100 µM | 0.45 µM | N=C(NCCCNCCCCCCCNCCCNC(=N)NC(=N)NCC(c1ccccc1)c1ccccc1)NC(=N)NCC(c1ccccc1)c1ccccc1 |
| 4.16 µM | > 100 µM | 0.18 µM | N=C(NCCCNCCCNCCCNC(=N)NC(=N)NCC(c1ccccc1)c1ccccc1)NC(=N)NCC(c1ccccc1)c1ccccc1 |
| 4.56 µM | > 100 µM | 3.35 µM | N=C(NCCCNCCCCNCCCNC(=N)NCC(c1ccccc1)c1ccccc1)NCC(c1ccccc1)c1ccccc1 |
| 2.74 µM | > 100 µM | 1.05 µM | N=C(NCCCNCCCCNCCCNC(=N)NC(=N)NCC(c1ccccc1)c1ccccc1)NC(=N)NCC(c1ccccc1)c1ccccc1 |
| 2.96 µM | > 100 µM | 0.19 µM | N=C(NCCCNCCCCNCCCNC(=N)NC(=N)NCCC(c1ccccc1)c1ccccc1)NC(=N)NCCC(c1ccccc1)c1ccccc1 |
| 0.95 µM | > 100 µM | 0.62 µM | N=C(NCCCNCCCCCCCNCCCNC(=N)NC(=N)NCCC(c1ccccc1)c1ccccc1)NC(=N)NCCC(c1ccccc1)c1ccccc1 |
| 5.07 µM | > 100 µM | 1.95 µM | N=C(NCCCNCCCNCCCNC(=N)NCCC(c1ccccc1)c1ccccc1)NCCC(c1ccccc1)c1ccccc1 |
